Source: patent publication US20230117324A1, “OXAZINE MONOACYLGLYCEROL LIPASE (MAGL) INHIBITORS” (Hoffmann-La Roche Inc., priority 2018, published 2023)

What follows are molecules tested against T1, MAGL (recombinant wild-type) (Homo sapiens, UniProt Q99685) (assay: MAGL inhibition, 4-NPA assay (hydrolysis of 4-nitrophenylacetate, absorbance at 405 nm)). Settings: 4-NPA assay (footnote [a]: values not marked [b]).
T1 sequence (Q99685 1-303): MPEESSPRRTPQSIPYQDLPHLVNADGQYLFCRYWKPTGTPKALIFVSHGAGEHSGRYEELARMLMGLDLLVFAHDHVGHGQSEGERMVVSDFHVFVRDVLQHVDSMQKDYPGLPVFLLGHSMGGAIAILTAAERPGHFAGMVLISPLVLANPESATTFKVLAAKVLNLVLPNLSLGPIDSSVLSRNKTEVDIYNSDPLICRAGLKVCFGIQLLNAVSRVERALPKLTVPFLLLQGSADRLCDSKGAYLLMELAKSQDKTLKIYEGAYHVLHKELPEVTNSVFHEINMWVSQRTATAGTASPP
Format: biochemical
Protocol: Compounds were profiled for MAGL inhibitory activity by measuring the enzymatic activity of MAGL by following the hydrolysis of 4-nitrophenylacetate resulting in 4-nitrophenol, which absorbs at 405-412 nm (G. G. Muccioli, G. Labar, D. M. Lambert, Chem. Bio. Chem. 2008, 9, 2704-2710). This assay is hereinafter abbreviated “4-NPA assay”.
The assay was carried out in 384 well assay plates (black with clear bottom, non-binding surface treated, Corning Ref. 3655) in a total volume of 40 μL. Compound dilutions were made in 100% DMSO (VWR Chemicals 23500.297) in a polypropylene plate in 3-fold dilution steps to give a final concentration range in the assay from 25 μM to 1.7 nM. 1 μL compound dilutions (100% DMSO) were added to 19 μL MAGL (recombinant wild-type) in assay buffer (50 mM TRIS (GIBCO, 15567-027), 1 mM EDTA (Fluka, 03690-100 mL)). The plate was shaked for 1 min at 2000 rpm (Variomag Teleshake) and then incubated for 15 min at RT. To start the reaction, 20 μL 4-Nitrophenlyacetate (Sigma N-8130) in assay buffer with 6% EtOH was added. The final concentrations in the assay were 1 nM MAGL and 300 μM 4-Nitrophenylacetate. After shaking (1 min, 2000 rpm) and 5 min incubation at RT, the absorbance at 405 nm was measured for a first time (Molecular Devices, SpectraMax Paradigm). A second measurement was then done after incubation for 80 min at RT. From the two measurements, the slope was calculated by subtracting the first from the second measurement.

| IC50 | SMILES |
| --- | --- |
| 3 nM | O=C1CO[C@H]2CCN(C(=O)N3CCC(C(c4ccccc4)c4ccccc4)CC3)C[C@H]2N1 (racemic) [Example 1, rac-(4aR,8aS)-6-(4-Benzhydrylpiperidine-1-carbonyl)-4,4a,5,7,8,8a-hexahydropyrido[4,3-b][1,4]oxazin-3-one] |
| 2 nM | O=C1CO[C@H]2CCN(C(=O)N3CCC(c4cn(CC5CC5)c5ccc(Cl)cc45)CC3)C[C@H]2N1 (racemic) [Example 2, rac-(4aR,8aS)-6-(4-(5-Chloro-1-(cyclopropylmethyl)-1H-indol-3-yl)piperidine-1-carbonyl)hexahydro-2H-pyrido[4,3-b][1,4]oxazin-3(4H)-one] |
| 3 nM | Cn1cc(C2CCN(C(=O)N3CC[C@@H]4OCC(=O)N[C@@H]4C3)CC2)c2cc(Cl)ccc21 (racemic) [Example 3, rac-(4aR,8aS)-6-(4-(5-Chloro-1-methyl-1H-indol-3-yl)piperidine-1-carbonyl)hexahydro-2H-pyrido[4,3-b][1,4]oxazin-3(4H)-one] |
| 5 nM | O=C1CO[C@H]2CCN(C(=O)N3CCC(C4c5ccccc5-c5ccccc54)CC3)C[C@H]2N1 (racemic) [Example 4, rac-(4aR,8aS)-6-(4-(9H-Fluoren-9-yl)piperidine-1-carbonyl)hexahydro-2H-pyrido[4,3-b][1,4]oxazin-3(4H)-one] |
| 15 nM | COCCC(c1ccc(F)cc1)C1CCN(C(=O)N2CC[C@@H]3OCC(=O)N[C@@H]3C2)CC1 (mixture of isomers) [Example 6, rac-(4aR,8aS)-6-(4-(1-(4-Fluorophenyl)-3-methoxypropyl)piperidine-1-carbonyl)hexahydro-2H-pyrido[4,3-b][1,4]oxazin-3(4H)-one] |
| 43 nM | O=C1CO[C@H]2CCN(C(=O)N3CCC(c4c[nH]c5cc(F)ccc45)CC3)C[C@H]2N1 (racemic) [Example 7, rac-(4aR,8aS)-6-[4-(6-Fluoro-1H-indol-3-yl)piperidine-1-carbonyl]-4,4a,5,7,8,8a-hexahydropyrido[4,3-b][1,4]oxazin-3-one] |
| 91 nM | COC(c1ccc(F)cc1)C1CCN(C(=O)N2CC[C@@H]3OCC(=O)N[C@@H]3C2)CC1 (mixture of isomers) [Example 8, rac-(4aR,8aS)-6-(4-((4-Fluorophenyl)(methoxy)methyl)piperidine-1-carbonyl)hexahydro-2H-pyrido[4,3-b][1,4]oxazin-3(4H)-one] |
| 644 nM | O=C1CO[C@H]2CCN(C(=O)N3CCC(c4noc5ccc(F)cc45)CC3)C[C@H]2N1 (racemic) [Example 9, rac-(4aR,8aS)-6-(4-(5-Fluorobenzo[d]isoxazol-3-yl)piperidine-1-carbonyl)hexahydro-2H-pyrido[4,3-b][1,4]oxazin-3(4H)-one] |
| 5 nM | O=C1CO[C@H]2CCN(C(=O)N3CCN([C@H](c4ccccc4)c4ccc(Cl)cc4)CC3)C[C@H]2N1 (racemic) [Example 10, rac-(4aR,8aS)-6-(4-(rac-(4-Chlorophenyl)(phenyl)methyl)piperazine-1-carbonyl)hexahydro-2H-pyrido[4,3-b][1,4]oxazin-3(4H)-one] |
| 12 nM | O=C1CO[C@H]2CCN(C(=O)N3CCN(C(c4ccc(F)cc4)c4ccc(F)cc4)CC3)C[C@H]2N1 (racemic) [Example 12, rac-(4aR,8aS)-6-[4-[bis(4-Fluorophenyl)methyl]piperazine-1-carbonyl]-4,4a,5,7,8,8a-hexahydropyrido[4,3-b][1,4]oxazin-3-one] |
| 133 nM | O=C1CO[C@H]2CCN(C(=O)N3CCN(c4c[nH]c5ccc(Cl)cc45)CC3)C[C@H]2N1 (racemic) [Example 14, rac-(4aR,8aS)-6-(4-(5-Chloro-1H-indol-3-yl)piperazine-1-carbonyl)hexahydro-2H-pyrido[4,3-b][1,4]oxazin-3(4H)-one] |
| 3000 nM | CC(c1ccccc1)N1CCN(C(=O)N2CC[C@@H]3OCC(=O)N[C@@H]3C2)CC1 (mixture of isomers) [Example 15, rac-(4aR,8aS)-6-(4-(1-Phenylethyl)piperazine-1-carbonyl)hexahydro-2H-pyrido[4,3-b][1,4]oxazin-3(4H)-one] |
| 1500 nM | Cn1ncc2cc(C3CCN(C(=O)N4CC[C@@H]5OCC(=O)N[C@@H]5C4)CC3)ccc21 (racemic) [Example 16, rac-(4aR,8aS)-6-(4-(1-Methyl-1H-indazol-5-yl)piperidine-1-carbonyl)hexahydro-2H-pyrido[4,3-b][1,4]oxazin-3(4H)-one] |
| 6 nM | O=C1CO[C@@H]2CCN(C(=O)N3CCN([C@@H](c4ccccc4)c4ccc(F)cc4)CC3)C[C@@H]2N1 (racemic) [Example 17, rac-(4aR,8aS)-6-[4-[rac-(4-Fluorophenyl)-phenylmethyl]piperazine-1-carbonyl]-4,4a,5,7,8,8a-hexahydropyrido[4,3-b][1,4]oxazin-3-one] |
| 2100 nM | N#C/C(=C\N1CCN(C(=O)N2CC[C@@H]3OCC(=O)N[C@@H]3C2)CC1)c1ccccc1 (racemic) [Example 18, (E/Z)-3-[4-[rac-(4aS,8aR)-3-oxo-4,4a,5,7,8,8a-hexahydropyrido[4,3-b][1,4]oxazine-6-carbonyl]piperazin-1-yl]-2-phenylprop-2-enenitrile] |
| 2 nM | O=C1CO[C@H]2CCN(C(=O)N3CCC(c4cn(C(CO)CCl)c5ccc(Cl)cc45)CC3)C[C@H]2N1 (mixture of isomers) [Example 20, rac-(4aR,8aS)-6-(4-(5-Chloro-1-(1-chloro-3-hydroxypropan-2-yl)-1H-indol-3-yl)piperidine-1-carbonyl)hexahydro-2H-pyrido[4,3-b][1,4]oxazin-3(4H)-one] |
| 33 nM | O=C1CO[C@H]2CCN(C(=O)N3CCC(C(CCO)c4ccc(F)cc4)CC3)C[C@H]2N1 (mixture of isomers) [Example 26, rac-cis-6-(4-(1-(4-Fluorophenyl)-3-hydroxypropyl)piperidine-1-carbonyl)hexahydro-2H-pyrido[4,3-b][1,4]oxazin-3(4H)-one] |
| 5 nM | CC(c1ccc(C(F)(F)F)cc1)C1CCN(C(=O)N2CC[C@@H]3OCC(=O)N[C@@H]3C2)CC1 (mixture of isomers) [Example 27, (4aR,8aS)-6-(4-(1-(4-(Trifluoromethyl)phenyl)ethyl)piperidine-1-carbonyl)hexahydro-2H-pyrido[4,3-b][1,4]oxazin-3(4H)-one] |
| 2 nM | CC(Oc1ccc(F)cc1Cl)C1CCN(C(=O)N2CC[C@@H]3OCC(=O)N[C@@H]3C2)CC1 (mixture of isomers) [Example 28, rac-(4aR,8aS)-6-(4-(1-(2-Chloro-4-fluorophenoxy)ethyl)piperidine-1-carbonyl)hexahydro-2H-pyrido[4,3-b][1,4]oxazin-3(4H)-one] |
| 14 nM | O=C1CO[C@H]2CCN(C(=O)N3CCC(c4c[nH]c5cc(F)ccc45)CC3)C[C@H]2N1 (relative stereo) [Example 5, (+)-cis-6-[4-(6-Fluoro-1H-indol-3-yl)piperidine-1-carbonyl]-4,4a,5,7,8,8a-hexahydropyrido[4,3-b][1,4]oxazin-3-one] |
| 8 nM | O=C1CO[C@H]2CCN(C(=O)N3CCN(C(c4ccc(F)cc4)c4ccc(F)cc4)CC3)C[C@H]2N1 (relative stereo) [Example 11, (+)-cis-6-(4-(bis(4-Fluorophenyl)methyl)piperazine-1-carbonyl)hexahydro-2H-pyrido[4,3-b][1,4]oxazin-3(4H)-one] |
| 2 nM | O=C1CO[C@H]2CCN(C(=O)N3CCC(c4cn(C5COC5)c5ccc(Cl)cc45)CC3)C[C@H]2N1 (relative stereo) [Example 22, (+)- or (−)-cis-6-(4-(5-Chloro-1-(oxetan-3-yl)-1H-indol-3-yl)piperidine-1-carbonyl)hexahydro-2H-pyrido[4,3-b][1,4]oxazin-3(4H)-one] |
| 1 nM | O=C1CO[C@H]2CCN(C(=O)N3CCC(c4cn(C5CC5)c5ccc(Cl)cc45)CC3)C[C@H]2N1 (single isomer, unassigned) [Example 19, (+)-or (−)-cis-6-(4-(5-Chloro-1-cyclopropyl-1H-indol-3-yl)piperidine-1-carbonyl)hexahydro-2H-pyrido[4,3-b][1,4]oxazin-3(4H)-one] |
| 1 nM | O=C1CO[C@H]2CCN(C(=O)N3CCC(C(c4ccc(F)cc4)c4ccc(F)cc4)CC3)C[C@H]2N1 (single isomer, unassigned) [Example 21, (+)-or (−)-cis-6-(4-(bis(4-Fluorophenyl)methyl)piperidine-1-carbonyl)hexahydro-2H-pyrido[4,3-b][1,4]oxazin-3(4H)-one] |
